Test results published in ChEMBL document CHEMBL1201862, “PubChem BioAssay data set” (2004).
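96-well plates; 48 h exposure; 5 concentrations. Endpoints by linear interpolation between flanking doses. Not reached: highest tested concentration assigned. GI50 marks 50% less growth.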 The source made the active and inactive calls. No stated cut-off is given here; in the data, active = GI50 up to about 1.1 µM and inactive = higher.

Columns and labels:
Experiment in all cases: DTP human tumour cell line panel, 48 h
DLD-1 = tested on: DLD-1
KM-20L2 = tested on: KM-20L2
XF498 = tested on: XF498
MOLT-4 = tested on: MOLT-4
RXF 393 = tested on: RXF 393
SNB-75 = tested on: SNB-75
786-0 = tested on: 786-0
SK-OV-3 = tested on: SK-OV-3
SK-MEL-28 = tested on: SK-MEL-28
NCI-H522 = tested on: NCI-H522
OVCAR-3 = tested on: OVCAR-3
A498 = tested on: A498
HT-29 = tested on: HT-29
Malme-3M = tested on: Malme-3M
UACC-257 = tested on: UACC-257
SR = tested on: SR
HCC 2998 = tested on: HCC 2998
HCT-116 = tested on: HCT-116
RPMI-8226 = tested on: RPMI-8226
HCT-15 = tested on: HCT-15
U-251 = tested on: U-251
HOP-62 = tested on: HOP-62
DMS-114 = tested on: DMS-114
OVCAR-8 = tested on: OVCAR-8
NCI-H23 = tested on: NCI-H23
UO-31 = tested on: UO-31
M19-MEL = tested on: M19-MEL
ACHN = tested on: ACHN
NCI-H226 = tested on: NCI-H226
SF-539 = tested on: SF-539
SN12C = tested on: SN12C
UACC-62 = tested on: UACC-62
EKVX = tested on: EKVX
OVCAR-4 = tested on: OVCAR-4
SNB-78 = tested on: SNB-78
SF-268 = tested on: SF-268
SNB-19 = tested on: SNB-19
TK-10 = tested on: TK-10
A549 = tested on: A549
NCI-H460 = tested on: NCI-H460
LXFL 529 = tested on: LXFL 529
M14 = tested on: M14
HL-60 = tested on: HL-60
SK-MEL-5 = tested on: SK-MEL-5
IGROV-1 = tested on: IGROV-1
K562 = tested on: K562
LOX IMVI = tested on: LOX IMVI
KM12 = tested on: KM12
COLO 205 = tested on: COLO 205
SF-295 = tested on: SF-295
OVCAR-5 = tested on: OVCAR-5
CAKI-1 = tested on: CAKI-1
SW-620 = tested on: SW-620
CCRF-CEM = tested on: CCRF-CEM
SK-MEL-2 = tested on: SK-MEL-2
HOP-92 = tested on: HOP-92

Cc1cccc(C)c1NC(=O)CCCC(=O)C1CC(=O)CCC1=O (stereo unspecified) was tested, and the GI50 (DLD-1) was > 100 µM (inactive), the GI50 (KM-20L2) was > 100 µM (inactive) and the GI50 (XF498) was > 100 µM (inactive). For the same compound, the GI50 (MOLT-4) was > 100 µM (inactive), the GI50 (RXF 393) was > 100 µM (inactive) and the GI50 (SNB-75) was > 100 µM (inactive). For the same compound, the GI50 (786-0) was > 100 µM (inactive), the GI50 (SK-OV-3) was > 100 µM (inactive) and the GI50 (SK-MEL-28) was > 100 µM (inactive). For the same compound, the GI50 (NCI-H522) was > 100 µM (inactive), the GI50 (OVCAR-3) was > 100 µM (inactive) and the GI50 (A498) was > 100 µM (inactive). The GI50 (HT-29) was > 100 µM (inactive), the GI50 (Malme-3M) was > 100 µM (inactive) and the GI50 (UACC-257) was > 100 µM (inactive). The GI50 (SR) was > 100 µM (inactive), the GI50 (HCC 2998) was > 100 µM (inactive) and the GI50 (HCT-116) was > 100 µM (inactive). The GI50 (RPMI-8226) was > 100 µM (inactive), the GI50 (HCT-15) was greater than 100 µM and the GI50 (U-251) was > 100 µM (inactive). The GI50 (HOP-62) was > 100 µM (inactive), the GI50 (DMS-114) was > 100 µM (inactive) and the GI50 (OVCAR-8) was > 100 µM (inactive). For the same compound, the GI50 (NCI-H23) was > 100 µM (inactive), the GI50 (UO-31) was > 100 µM (inactive) and the GI50 (M19-MEL) was > 100 µM (inactive). For the same compound, the GI50 (ACHN) was > 100 µM (inactive), the GI50 (NCI-H226) was > 100 µM (inactive) and the GI50 (SF-539) was > 100 µM (inactive). For the same compound, the GI50 (SN12C) was > 100 µM (inactive), the GI50 (UACC-62) was > 100 µM (inactive) and the GI50 (EKVX) was > 100 µM (inactive). For the same compound, the GI50 (OVCAR-4) was > 100 µM (inactive), the GI50 (SNB-78) was > 100 µM (inactive) and the GI50 (SF-268) was > 100 µM (inactive). The GI50 (SNB-19) was > 100 µM (inactive).
For CC1CC(=O)C(CC(=O)O)C1C(C(=O)C(=O)Nc1c(C#N)cccc1[N+](=O)[O-])[N+](=O)[O-] (stereo unspecified), the GI50 (TK-10) was > 100 µM (inactive), the GI50 (A549) was > 100 µM (inactive) and the GI50 (NCI-H460) was > 100 µM (inactive). The GI50 (DLD-1) was > 100 µM (inactive), the GI50 (KM-20L2) was > 100 µM (inactive) and the GI50 (XF498) was > 100 µM (inactive). The GI50 (MOLT-4) was > 100 µM (inactive), the GI50 (RXF 393) was > 100 µM (inactive) and the GI50 (SNB-75) was > 100 µM (inactive). The GI50 (LXFL 529) was > 100 µM (inactive), the GI50 (786-0) was > 100 µM (inactive) and the GI50 (M14) was > 100 µM (inactive). The GI50 (HL-60) was > 100 µM (inactive), the GI50 (SK-OV-3) was > 100 µM (inactive) and the GI50 (SK-MEL-28) was > 100 µM (inactive). For the same compound, the GI50 (OVCAR-3) was > 100 µM (inactive), the GI50 (A498) was > 100 µM (inactive) and the GI50 (SK-MEL-5) was > 100 µM (inactive). For the same compound, the GI50 (HT-29) was > 100 µM (inactive), the GI50 (Malme-3M) was > 100 µM (inactive) and the GI50 (IGROV-1) was > 100 µM (inactive). For the same compound, the GI50 (UACC-257) was > 100 µM (inactive), the GI50 (K562) was > 100 µM (inactive) and the GI50 (SR) was > 100 µM (inactive). For the same compound, the GI50 (HCC 2998) was > 100 µM (inactive), the GI50 (LOX IMVI) was > 100 µM (inactive) and the GI50 (HCT-116) was > 100 µM (inactive). For the same compound, the GI50 (KM12) was > 100 µM (inactive), the GI50 (RPMI-8226) was > 100 µM (inactive) and the GI50 (HCT-15) was greater than 100 µM. For the same compound, the GI50 (U-251) was > 100 µM (inactive), the GI50 (HOP-62) was > 100 µM (inactive) and the GI50 (COLO 205) was > 100 µM (inactive). The GI50 (DMS-114) was > 100 µM (inactive), the GI50 (OVCAR-8) was > 100 µM (inactive) and the GI50 (NCI-H23) was > 100 µM (inactive). The GI50 (UO-31) was 57.3 µM (inactive), the GI50 (M19-MEL) was > 100 µM (inactive) and the GI50 (SF-295) was > 100 µM (inactive). For the same compound, the GI50 (ACHN) was > 100 µM (inactive), the GI50 (OVCAR-5) was > 100 µM (inactive) and the GI50 (CAKI-1) was > 100 µM (inactive). The GI50 (NCI-H226) was > 100 µM (inactive), the GI50 (SF-539) was > 100 µM (inactive) and the GI50 (SW-620) was > 100 µM (inactive). For the same compound, the GI50 (UACC-62) was > 100 µM (inactive), the GI50 (EKVX) was > 100 µM (inactive) and the GI50 (CCRF-CEM) was > 100 µM (inactive). The GI50 (OVCAR-4) was > 100 µM (inactive), the GI50 (SK-MEL-2) was > 100 µM (inactive) and the GI50 (SNB-78) was 80.4 µM (inactive). For the same compound, the GI50 (SF-268) was > 100 µM (inactive), the GI50 (HOP-92) was 82.2 µM (inactive) and the GI50 (SNB-19) was > 100 µM (inactive).
